Results: ChEMBL document CHEMBL1132878, “Phosphonamidate and phosphothioate dipeptides as potential inhibitors of VanX” (Bioorg Med Chem Lett, 2000)
The source made the active and inactive calls. No cut-off for these calls is given here.

Assays:
[1] = test system: Stenotrophomonas maltophilia; experiment: Tested for inhibitory activity against metallo-beta-lactamase L1 from Stenotrophomonas maltophilia at compound concentration up to […] at pH 7.0 using nitrocefin as substrate; No inhibition; format: functional
[2] = Compound was evaluated for inhibition of Van X at pH 7.0; No inhibition
[3] = Compound was evaluated for inhibition of Van X at pH 7.0
[4] = Compound was evaluated for inhibition of Van X

Row | Compound | Activity [1] | Ki [2] | Ki [3] | Kis [4]
1 | CC(N)P(=O)(O)SCC(=O)O (configuration not stated) | inactive | Not Active | – | –
2 | CC(NP(=O)(O)C(C)N)C(=O)O (configuration not stated) | inactive | – | 36 µM | –
3 | CC(C[PH](=O)C(C)N)C(=O)O (configuration not stated) | – | – | – | 0.32 µM
4 | CC(OP(=O)(O)C(C)N)C(=O)O (configuration not stated) | inactive | – | 400 µM | –
